Assay results published in patent US20140206763A1, “PHENYLBUTYRATE FOR TREATMENT OF SPORADIC INCLUSION-BODY MYOSITIS AND DISORDERS RELATING TO AUTOPHAGY IMPAIRMENT OR AMYLOID BETA 42 ACCUMULATION” (UNIVERSITY OF SOUTHERN CALIFORNIA, priority 2013, published 2014).
“Also recorded” adds a separate entry of the source. One block for each compound: values may come before it.

Assays:
[1] = patients with urea cycle-disorders, compared with NaPB; cited from earlier work
[2] = test system: cultured human muscle fibers (CHMFs); assay: Vacuolization of cultured human muscle fibers by phase-contrast microscopy; assay type: cell-based; conditions: for vacuolization of CHMFs after exposure to lysosomal inhibitor alone: exposure alone 24 hours, vs control CHMFs; for vacuolization of chloroquine-exposed CHMFs: chloroquine 50 μM 24 hours + NaPB 15 mM, vs chloroquine alone
Method: (§1) Primary cultures of normal human muscle were established as routinely performed in our laboratory (Askanas and Engel, 1992) from archived satellite cells of portions of diagnostic muscle biopsies from patients who, after all tests were performed, were considered free of muscle disease. Each experiment was performed on 3-9 different culture sets, each established from satellite cells derived from a different muscle biopsy. 10-15 days after myoblast fusion, the well-differentiated myotubes were, as previously described (Nogalska et al., 2012; Nogalska et al., 2010b), exposed for 24 hours to either: a) chloroquine (Chl), a lysosomotropic agent raising lysosomal pH and inhibiting activities of cathepsins (Shacka et al., 2006) (50 μM, Sigma-Aldrich, St. Louis, Mo.); or b) bafilomycin Al (Baf), an inhibitor of lysosomal V-ATPase causing an increase in lysosomal pH and inhibiting activities of cathepsins (Shacka et al., 2006) (25 nM, Sigma-Aldrich). CHMFs were also treated with NaPB (Tocris/R&D Systems, Minneapolis, Minn.) in doses ranging from 1-15 mM, used either alone or together with chloroquine or bafilomycin.

LC3-II = LC3-II immunoblot with densitometric analysis in CHMFs; assay type: cell-based, human; conditions: for increase of LC3-II: exposure to inhibitor alone, vs control CHMFs
Method: as §1
(§2) CHMFs were harvested in RIPA buffer and immunoblotted, as previously detailed (D'Agostino et al., 2011; Nogalska et al., 2012; Nogalska et al., 2010b) using antibodies against LC3 (1:500, Novus Biologicals, Littleton, Colo.), p62 (1:100, A-6, Santa Cruz Biotechnology) or NBR1 (1:700). Aβ42 oligomers were studied using 6E10 antibody (1:500, Covance, Princeton, N.J.), as described (Nogalska et al., 2010a). Blots were developed using anti-rabbit or anti-mouse WesternBreeze chemiluminescence kits (Invitrogen). Protein loading was evaluated by the actin band (1:600, C-2, Santa Cruz Biotechnology). Quantification of the immunoreactivity was performed by densitometric analysis using NIH Image J 1.310 software.

NBR1 = NBR1 immunoblot with densitometric analysis in CHMFs; assay type: cell-based, human; conditions: for increase of NBR1 levels: exposure to inhibitor alone, vs control CHMFs
Method: as §1, §2

p62 = p62 immunoblot with densitometric analysis in CHMFs; assay type: cell-based, human; conditions: for increase of p62: exposure to inhibitor alone, vs control CHMFs
Method: as §1, §2

Cathepsin D = assay: Measurement of Cathepsin D activity in CHMF homogenates; assay type: cell-based, human; conditions: for reduction of Cathepsin D activity: exposure to inhibitor alone, vs control CHMFs
Method: as §1
Cathepsin D [EC 3.4.23.5] activity was measured utilizing a Cathepsin D Assay Kit (Sigma, St. Louis, Mo.) according to manufacturer's instructions and as previously detailed (Nogalska et al., 2010b). Homogenates were prepared in phosphate buffer-saline with addition of CHAPS (0.05%) (Sigma-Aldrich). All samples were measured in duplicate. The fluorescence emission excited at 355 nm was recorded at 405 nm every 2 minutes. Activity of cathepsin D measured in the linear phase of the reaction was expressed as fluorescence-intensity per minute.

Cathepsin B = assay: Measurement of Cathepsin B activity in CHMFs; assay type: cell-based, human; conditions: for reduction of Cathepsin B activity: exposure to inhibitor alone, vs control CHMFs
Method: as §1
Cathepsin B [EC 3.4.22.1] activity was measured as described (Nogalska et al., 2010b). Samples were measured in duplicate. All samples were incubated at 37° C. for 45 min, and the fluorescence emission excited at 355 nm was recorded at 444 nm. Activity of cathepsin B was expressed as arbitrary fluorescence units.

Aβ42 = Aβ42 ELISA in CHMFs; assay type: cell-based, human
Method: as §1
To quantify endogenous Aβ42 content in cultured human muscle fibers, we used the “Human β-Amyloid (1-42) ELISA kit, WAKO, High Sensitive” (WAKO Chemicals USA, Inc., Richmond, Va.) as described (Nogalska et al., 2012). Homogenates were freshly prepared in RIPA buffer containing a protease inhibitor cocktail (Roche Diagnostic, Mannheim, Germany). 100 μg of protein per well from each sample were diluted in a Standard Diluent Buffer provided in the kit, added to the assay plates in duplicate, and incubated overnight at 4° C. The ELISA was performed the next day, according to manufacturer's protocol. The absorbance was read at 450 nm.

GFP-LC3 = GFP-LC3 puncta count (autophagosome accumulation) in CHMFs; assay type: cell-based, human
Method: To morphologically evaluate accumulation of autophagosomes, three different tissue-culture sets (experiments) were transduced with PremoAutophagy Sensor GFP-LC3 (Invitrogen, Carlsbad, Calif.) according to the manufacturer's instructions. 24 hours later, CHMFs were treated with chloroquine as described above. Counting of the GFP-LC3 puncta in the muscle fibers was performed on all three different culture experiments. Each experiment involved the same three different conditions: control, chloroquine-exposed, and chloroquine-exposed-plus-NaPB-treated cultures. In each experiment, each condition was composed of two cultures. For the analysis, eight random fields per condition of each culture were photographed (magnification ×40) in each of the three experiments. Overall, in each of the three conditions GFP-LC3 puncta were evaluated in more than 80 fibers, independently by two investigators (AN and CD). In addition, GFP-LC3 transduced CHMFs were also processed for immunofluorescence of NBR1 (1:100, 4BR, Santa Cruz Biotechnology, Santa Cruz, Calif.).

γ-secretase = assay: Measurement of γ-secretase activity in CHMFs; assay type: cell-based, human
Method: as §1
γ-secretase activity was measured as previously described (Nogalska et al., 2012). Briefly, cultures were homogenized in PBS buffer with addition of 0.05% CHAPS. The supernatants containing 50 μg of protein were added to the reaction mixture containing assay buffer (50 mM TRIS-HCl pH 6.8, 2 mM EDTA, 0.25% CHAPS). The reaction was initiated by adding a specific synthetic substrate NMA-Amyloid β-Protein (aa708-715)-Lys-(DNP) Arg-Arg-Arg-amide trifluoroacetate salt (10 μM) (Sigma-Aldrich). After overnight incubation at 37° C., the samples were centrifuged at 16,000×g for 15 minutes, supernatants were transferred to a 96-well plate and the fluorescence emission excited at 390 nm was recorded at 444 nm. Activity of γ-secretase was expressed as arbitrary fluorescence units.

Aβ42 oligomers = Aβ42 oligomers immunoblot (6E10 antibody) in CHMFs; assay type: cell-based, human
Method: Primary cultures of normal human muscle were established as routinely performed in our laboratory (Askanas and Engel, 1992) from archived satellite cells of portions of diagnostic muscle biopsies from patients who, after all tests were performed, were considered free of muscle disease. Each experiment was performed on 3-9 different culture sets, each established from satellite cells derived from a different muscle biopsy. […]
as §2, with “Aβ42 oligomers were studied using 6E10 antibody (1:500, Covance, Princeton, N.J.), as described (Nogalska et al., 2010a). Blots were developed using anti-rabbit or anti-mouse WesternBreeze chemiluminescence kits (Invitrogen).” left out

control CHMFs = assay: Morphology and muscle-fiber viability of control CHMFs; assay type: cell-based, human; conditions: 15 mM NaPB
Method: as §1

[3] = cited from earlier work
CHMFs = assay: Treatment of CHMFs with HDAC inhibitor compared with PB; assay type: cell-based, human; conditions: data not shown
[4] = chloroquine alone vs control CHMFs
[5] = bafilomycin+NaPB (15 mM) vs bafilomycin alone
[6] = chloroquine+NaPB (15 mM) vs chloroquine alone
[7] = autophagy-impaired cultures, not significantly worse than controls
[8] = bafilomycin+NaPB (15 mM) vs bafilomycin without NaPB

Structure (SMILES): O=C(CCCc1ccccc1)OCC(COC(=O)CCCc1ccccc1)OC(=O)CCCc1ccccc1 [GPB, 1,2,3-Propanetriyl tris(4-phenylbutanoate)]
lowering blood ammonia [1]: as effective as NaPB

Structure (SMILES): CO/C1=C\C(C)=C\[C@@H](C)[C@@H](O)[C@@H](C)C/C(C)=C/C=C/[C@H](OC)[C@@H]([C@@H](C)[C@@H](O)[C@H](C)[C@@]2(O)C[C@@H](O)[C@H](C)[C@@H](C(C)C)O2)OC1=O [bafilomycin, bafilomycin Al]
vacuolization of CHMFs after exposure to lysosomal inhibitor alone [2]: induced pronounced vacuolization
increase of LC3-II (LC3-II): 17 fold
increase of NBR1 levels (NBR1): 9 fold
increase of p62 (p62): 18 fold
reduction of Cathepsin D activity (Cathepsin D): 25%
reduction of Cathepsin B activity (Cathepsin B): 85%
Aβ42 by ELISA after inhibitor exposure (Aβ42; Baf-exposed CHMFs, two separate experiments): elevated

Structure (SMILES): CCN(CC)CCCC(C)Nc1ccnc2cc(Cl)ccc12 (centres unmarked) [chloroquine]
vacuolization of CHMFs after exposure to lysosomal inhibitor alone [2]: induced pronounced vacuolization
increase of number of GFP-LC3 foci/puncta per muscle fiber (GFP-LC3; exposure alone, vs control CHMFs): 8 fold
increase of LC3-II (LC3-II): 9 fold
increase of NBR1 levels (NBR1): 5 fold
increase of p62 (p62): 9 fold
reduction of Cathepsin D activity (Cathepsin D): 40%
reduction of Cathepsin B activity (Cathepsin B): 60%
increase of Aβ42 by ELISA (Aβ42; [4]): 60%
γ-secretase activity after inhibitor exposure (γ-secretase; [4]): significantly increased γ-secretase activity

γ-secretase activity value after NaPB treatment compared with controls (ANOVA) (γ-secretase; [7]): fully corrected
Structure (SMILES): O=C([O-])CCCc1ccccc1.[Na+] [NaPB, Sodium 4-phenylbutanoate]
vacuolization of bafilomycin-exposed CHMFs ([2]; bafilomycin 25 nM 24 hours + NaPB 15 mM, vs bafilomycin alone): nearly completely prevented their vacuolization; also recorded: morphologically prominent decrease of their vacuolization
vacuolization of chloroquine-exposed CHMFs [2]: virtually completely prevented their vacuolization
vacuolization of chloroquine-exposed CHMFs ([2]; listed as PB): prominently eliminating their vacuolization
decrease of number of GFP-LC3 foci (GFP-LC3; chloroquine+NaPB (15 mM) vs chloroquine-only exposed cultures): 53%
decrease of LC3-II (LC3-II; [5]): 36%
decrease of LC3-II (LC3-II; [6]): 54%
effect on protein level of LC3-II (LC3-II; control CHMFs, NaPB 1-15 mM): did not exert any effect
decrease of NBR1 (NBR1; [5]): 34%
reduction of increased NBR1 (NBR1; [6]): 63%
effect on protein level of NBR1 (NBR1; control CHMFs, NaPB 1-15 mM): did not exert any effect
decrease of p62 (p62; [5]): 83%
decrease of p62 (p62; [6]): 74%
effect on p62 at lower dose (p62; chloroquine-exposed CHMFs, NaPB 5 mM): significantly decreased p62; also recorded: statistically significantly decreased
effect on protein level of p62 (p62; control CHMFs, NaPB 1-15 mM): did not exert any effect
Cathepsin D value after NaPB treatment compared with controls (ANOVA) (Cathepsin D; [7]): fully corrected
higher activity of Cathepsin D (Cathepsin D; [8]): 15%
increase of Cathepsin D activity (Cathepsin D; [6]): 40%
effect on Cathepsin D activity (Cathepsin D; control CHMFs, NaPB 1-15 mM): did not exert any effect
effect on Cathepsin B activity in ER-stress model (Cathepsin B; ER-stress-induced CHMFs, data not shown): mitigates the reduction of Cathepsin B activity
higher activity of Cathepsin B (Cathepsin B; [8]): 40%
increase of Cathepsin B activity (Cathepsin B; [6]): 70%
effect on Cathepsin B activity (Cathepsin B; control CHMFs, NaPB 1-15 mM): did not exert any effect
Aβ42 by ELISA value after NaPB treatment compared with controls (ANOVA) (Aβ42; [7]): fully corrected
lower amount of Aβ42 by ELISA (Aβ42; bafilomycin+NaPB (15 mM) vs bafilomycin alone, 2 culture sets, statistical significance not reached): 28%
decrease of Aβ42 by ELISA (Aβ42; [6]): 53%
lower amount of Aβ42 oligomers (Aβ42 oligomers; [5]): 60%
decrease of Aβ42 oligomers (Aβ42 oligomers; chloroquine+NaPB (15 mM) vs autophagy-impaired NaPB-non-treated CHMFs): 65%
decrease of γ-secretase activity (γ-secretase; chloroquine+NaPB (15 mM) vs untreated autophagy-impaired CHMFs): 56%
adverse morphologic abnormalities and muscle-fiber viability (control CHMFs): did not produce either adverse morphologic abnormalities or affect muscle-fiber viability
tolerability, daily and long-term ([3]; infants, children and adults with urea-cycle disorders): usually well tolerated
tolerability in preliminary trials ([3]; patients with amyotrophic lateral sclerosis (ALS)): well-tolerated

Structure (SMILES): CC(/C=C/C(=O)NO)=C\[C@@H](C)C(=O)c1ccc(N(C)C)cc1 [trichostatinA]
ameliorative effect compared with PB (CHMFs): did not have an effect similar to that achieved with PB
